Experimental data as given in PMC8217813, “Bridging Computational Vaccinology and Vaccine Development Through Systematic Identification, Characterization, and Downselection of Conserved and Variable Circumsporozoite Protein CD4 T Cell Epitopes From Diverse Plasmodium falciparum Strains” (Frontiers in Immunology, 2021).
Peptide text beside a SMILES is read from it.

Key:
[1] = tested on: CD4 T cells co-cultured with autologous DCs from PBMCs; assay type: cell-based, human
HLA-DRB1*0801 = HLA-DRB1*0801 (Homo sapiens, UniProt P01903+P01911, A100R/A103L/A169T/D86S/F76Y/H45Y/I96F/K41T/L162R/M171V/P40S/Q125H/Q178H/Q39Y/Q99D/R218S/R42G/S66Y/V115G/W38E); test: In vitro class II HLA binding competition assay; details: competition with fluorescent-labeled reference peptide, class II HLA monomers, 24-hours, test peptide 100,000 nM to 100 nM, time-resolved fluorescence
Experimental: (§1) EpiVax conducted in vitro quantification of peptide-HLA binding affinity utilizing a competition assay format per the methodology described in ([35]). Briefly, a fluorescent-labeled, high-binding reference peptide and titrating concentrations of test peptide were incubated in a 96-well plate format with limiting concentrations of class II HLA monomers in aqueous buffer for 24-hours. Post incubation, the mixtures were moved to a 96-well plate coated with anti-HLA-DR antibody to capture HLA-peptide complexes. Time-resolved fluorescence measurement of the bound labeled reference peptide complex present in each mixture were detected with a europium-linked probe via fluorescent spectrophotometry using a SpectraMax M5 system. HLA binding affinity of each test peptide was expressed as the percent inhibition of reference peptide binding. Percent inhibition values (across the test peptide titration range) were used to calculate the half maximal inhibitory concentration (IC50) of each test peptide. For these studies, test peptides were assessed using a range of final concentrations from 100,000 nM to 100 nM and all peptides were reconstituted in dimethyl sulfoxide (DMSO).

HLA-DRB1*0701 = HLA-DRB1*0701 (Homo sapiens, UniProt P01903+P01911, A100R/A102G/A103Q/D57E/D86V/E43K/F76Y/K127E/L162R/M171V/P40G/Q125H/Q99D/R33Q/R42Y/R54Q/S133A/S66F/T210M/V115G/Y107V/Y59L/Y89S); test: In vitro class II HLA binding competition assay
Experimental: as §1

HLA-DRB1*0101 = target: T1, HLA-DRB1*0101 (Homo sapiens, UniProt P01903+P01911, A100R/D57E/F55L/F60I/F76Y/I96L/L162R/M171V/P40L/Q125E/R42F/V115G/Y59C); test: In vitro class II HLA binding competition assay
T1 construct: purchased
Experimental: as §1

HLA-DRB1*0401 = target: T2, HLA-DRB1*0401 (Homo sapiens, UniProt P01903+P01911, A100K/A169T/F76Y/I96L/K127E/L162R/M171V/N62H/P40V/Q125Y/R42H/S133A/S149N/S66Y/V115G/V209L/W38E); test: In vitro class II HLA binding competition assay
T2 construct: purchased
Experimental: as §1

HLA-DRB1*1301 = HLA-DRB1*1301 (Homo sapiens, UniProt P01903+P01911, A100E/A169T/K41T/L162R/M171V/P40S/Q125H/Q178H/Q39Y/Q99D/R42S/S66N/T262R/W38E/Y61H); test: In vitro class II HLA binding competition assay; details: competition with fluorescent-labeled reference peptide, class II HLA monomers, 24-hours, test peptide 100,000 nM to 100 nM, time-resolved fluorescence
Experimental: as §1

HLA-DRB1*1501 = target: T3, HLA-DRB1*1501 (Homo sapiens, UniProt P01903+P01911); test: In vitro class II HLA binding competition assay
T3 construct: purchased
Experimental: as §1

[2] = DR1 donors N=5, positive = Stimulation Index ≥1.5-fold above baseline, ICCS, 5 µg/mL peptide
[3] = DR3 donors N=6, positive = Stimulation Index ≥1.5-fold above baseline, ICCS, 5 µg/mL peptide
[4] = DR4 donors N=10, positive = Stimulation Index ≥1.5-fold above baseline, ICCS, 5 µg/mL peptide
[5] = DR7 donors N=4, positive = Stimulation Index ≥1.5-fold above baseline, ICCS, 5 µg/mL peptide
[6] = DR8 donors N=4, positive = Stimulation Index ≥1.5-fold above baseline, ICCS, 5 µg/mL peptide
[7] = DR9 donors N=4, positive = Stimulation Index ≥1.5-fold above baseline, ICCS, 5 µg/mL peptide
[8] = DR11 donors N=4, positive = Stimulation Index ≥1.5-fold above baseline, ICCS, 5 µg/mL peptide
[9] = DR13 donors N=7, positive = Stimulation Index ≥1.5-fold above baseline, ICCS, 5 µg/mL peptide
[10] = DR15 donors N=7, positive = Stimulation Index ≥1.5-fold above baseline, ICCS, 5 µg/mL peptide

## CC[C@H](C)[C@H](NC(C)=O)C(=O)N[C@@H](CCC(=O)O)C(=O)N[C@@H](CCC(N)=O)C(=O)N[C@@H](Cc1ccc(O)cc1)C(=O)N[C@@H](CC(C)C)C(=O)N[C@@H](CCCCN)C(=O)N[C@@H](CCCCN)C(=O)N[C@H](C(=O)N[C@@H](CCC(N)=O)C(=O)N[C@@H](Cc1ccc(O)cc1)C(=O)N[C@@H](CO)C(=O)N[C@@H](CC(C)C)C(=O)N[C@@H](CO)C(=O)N[C@H](C(=O)N[C@@H](CCC(=O)O)C(=O)N[C@@H](Cc1c[nH]c2ccccc12)C(=O)N[C@@H](CO)C(=O)N1CCC[C@H]1C(=O)N[C@@H](CS)C(N)=O)[C@@H](C)O)[C@@H](C)CC [ICS7] (Ac-IEQYLKKIQYSLSTEWSPC-NH2)
[1]
  median SI, IFN-γ recall responses: 1.75
[1]; DR1 donors N=5, positive = Stimulation Index ≥1.5-fold above baseline, ICCS after 14-day co-culture, 5 µg/mL peptide
  Percentage of donors demonstrating IFN-γ responses, DR1: 60%
[1]; [2]
  Percentage of donors demonstrating IL-2 responses, DR1: 60%
  Percentage of donors demonstrating IL-4 responses, DR1: 20%
  Percentage of donors demonstrating IL-10 responses, DR1: 0%
  Percentage of donors demonstrating TNF-α responses, DR1: 40%
[1]; DR3 donors N=6, positive = Stimulation Index ≥1.5-fold above baseline, ICCS after 14-day co-culture, 5 µg/mL peptide
  Percentage of donors demonstrating IFN-γ responses, DR3: 67%
[1]; [3]
  Percentage of donors demonstrating IL-2 responses, DR3: 33%
  Percentage of donors demonstrating IL-4 responses, DR3: 0%
  Percentage of donors demonstrating IL-10 responses, DR3: 0%
  Percentage of donors demonstrating TNF-α responses, DR3: 50%
[1]; DR4 donors N=10, positive = Stimulation Index ≥1.5-fold above baseline, ICCS after 14-day co-culture, 5 µg/mL peptide
  Percentage of donors demonstrating IFN-γ responses, DR4: 70%
[1]; [4]
  Percentage of donors demonstrating IL-2 responses, DR4: 70%
  Percentage of donors demonstrating IL-4 responses, DR4: 0%
  Percentage of donors demonstrating IL-10 responses, DR4: 10%
  Percentage of donors demonstrating TNF-α responses, DR4: 80%
[1]; DR7 donors N=4, positive = Stimulation Index ≥1.5-fold above baseline, ICCS after 14-day co-culture, 5 µg/mL peptide
  Percentage of donors demonstrating IFN-γ responses, DR7: 75%
[1]; [5]
  Percentage of donors demonstrating IL-2 responses, DR7: 75%
  Percentage of donors demonstrating IL-4 responses, DR7: 0%
  Percentage of donors demonstrating IL-10 responses, DR7: 25%
  Percentage of donors demonstrating TNF-α responses, DR7: 75%
[1]; DR8 donors N=4, positive = Stimulation Index ≥1.5-fold above baseline, ICCS after 14-day co-culture, 5 µg/mL peptide
  Percentage of donors demonstrating IFN-γ responses, DR8: 75%
[1]; [6]
  Percentage of donors demonstrating IL-2 responses, DR8: 75%
  Percentage of donors demonstrating IL-4 responses, DR8: 0%
  Percentage of donors demonstrating IL-10 responses, DR8: 0%
  Percentage of donors demonstrating TNF-α responses, DR8: 100%
[1]; DR9 donors N=4, positive = Stimulation Index ≥1.5-fold above baseline, ICCS after 14-day co-culture, 5 µg/mL peptide
  Percentage of donors demonstrating IFN-γ responses, DR9: 50%
[1]; [7]
  Percentage of donors demonstrating IL-2 responses, DR9: 75%
  Percentage of donors demonstrating IL-4 responses, DR9: 0%
  Percentage of donors demonstrating IL-10 responses, DR9: 0%
  Percentage of donors demonstrating TNF-α responses, DR9: 50%
[1]; DR11 donors N=4, positive = Stimulation Index ≥1.5-fold above baseline, ICCS after 14-day co-culture, 5 µg/mL peptide
  Percentage of donors demonstrating IFN-γ responses, DR11: 25%
[1]; [8]
  Percentage of donors demonstrating IL-2 responses, DR11: 25%
  Percentage of donors demonstrating IL-4 responses, DR11: 0%
  Percentage of donors demonstrating IL-10 responses, DR11: 0%
  Percentage of donors demonstrating TNF-α responses, DR11: 25%
[1]; DR13 donors N=7, positive = Stimulation Index ≥1.5-fold above baseline, ICCS after 14-day co-culture, 5 µg/mL peptide
  Percentage of donors demonstrating IFN-γ responses, DR13: 86%
[1]; [9]
  Percentage of donors demonstrating IL-2 responses, DR13: 57%
  Percentage of donors demonstrating IL-4 responses, DR13: 0%
  Percentage of donors demonstrating IL-10 responses, DR13: 14%
  Percentage of donors demonstrating TNF-α responses, DR13: 71%
[1]; DR15 donors N=7, positive = Stimulation Index ≥1.5-fold above baseline, ICCS after 14-day co-culture, 5 µg/mL peptide
  Percentage of donors demonstrating IFN-γ responses, DR15: 43%
[1]; [10]
  Percentage of donors demonstrating IL-2 responses, DR15: 57%
  Percentage of donors demonstrating IL-4 responses, DR15: 0%
  Percentage of donors demonstrating IL-10 responses, DR15: 14%
  Percentage of donors demonstrating TNF-α responses, DR15: 57%
HLA-DRB1*0801
  IC50: 6.09 µM
HLA-DRB1*0701
  IC50: 2.76 µM
HLA-DRB1*0101
  IC50: > 100 µM
HLA-DRB1*0401
  IC50: 32.8 µM
HLA-DRB1*1301
  IC50: 17.9 µM
HLA-DRB1*1501
  IC50: 63.2 µM
